Assay results: article PMC4373589 (Journal of medicinal chemistry, 2013)

Experiments:
antinociception = test: Warm-water tail flick assay, acute agonist effect; details: up to 30 mg/kg dose; s.c.
mu opioid receptor (MOR) [1] = biological target: T1, mu opioid receptor (MOR) (Mus musculus, UniProt P42866); test: MOR competitive radioligand binding; set-up: species or system mice
[2] = biological target: T2, kappa opioid receptor (KOR) (Mus musculus, UniProt P33534); test: biochemical; format: binding, mice
T2 sequence (P33534 whole entry): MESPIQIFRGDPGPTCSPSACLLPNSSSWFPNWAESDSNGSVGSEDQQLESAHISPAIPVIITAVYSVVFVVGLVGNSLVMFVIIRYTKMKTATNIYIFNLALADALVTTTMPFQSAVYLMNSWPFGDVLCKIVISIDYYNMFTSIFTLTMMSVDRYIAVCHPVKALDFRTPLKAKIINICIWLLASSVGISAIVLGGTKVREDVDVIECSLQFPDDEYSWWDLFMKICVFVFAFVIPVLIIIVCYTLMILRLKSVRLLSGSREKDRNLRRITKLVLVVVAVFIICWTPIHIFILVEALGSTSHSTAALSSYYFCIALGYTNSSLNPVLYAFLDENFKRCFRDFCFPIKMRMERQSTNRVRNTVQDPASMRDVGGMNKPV

[3] = biological target: T3, delta opioid receptor (DOR) (Mus musculus, UniProt P32300); test: DOR [35S]-GTPγS binding assay
T3 sequence (P32300 whole entry): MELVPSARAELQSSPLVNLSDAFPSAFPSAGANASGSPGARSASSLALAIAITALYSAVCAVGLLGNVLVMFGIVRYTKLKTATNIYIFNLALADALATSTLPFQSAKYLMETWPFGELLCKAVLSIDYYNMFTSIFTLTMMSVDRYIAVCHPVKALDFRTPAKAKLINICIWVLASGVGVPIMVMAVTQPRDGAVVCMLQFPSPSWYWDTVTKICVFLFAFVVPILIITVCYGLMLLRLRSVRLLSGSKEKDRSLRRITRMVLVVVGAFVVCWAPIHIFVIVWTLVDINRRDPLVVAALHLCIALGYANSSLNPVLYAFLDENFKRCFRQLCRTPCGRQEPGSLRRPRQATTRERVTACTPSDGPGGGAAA

morphine dependent mice = test: Opioid withdrawal assay in morphine-pelleted mice; format: in vivo
[4] = biological target: T3, delta opioid receptor (DOR); test: DOR competitive radioligand binding; set-up: species or system mice
[5] = biological target: T2, kappa opioid receptor (KOR); test: KOR [35S]-GTPγS binding assay
mu opioid receptor (MOR) [6] = biological target: T1, mu opioid receptor (MOR); test: MOR [35S]-GTPγS functional assay; format: biochemical, mice
[7] = increasing dose up to 30 mg/kg s.c.
[8] = 1 mg/kg s.c., morphine-pelleted mice, counted over 20 minutes

T1 sequence (P42866 whole entry): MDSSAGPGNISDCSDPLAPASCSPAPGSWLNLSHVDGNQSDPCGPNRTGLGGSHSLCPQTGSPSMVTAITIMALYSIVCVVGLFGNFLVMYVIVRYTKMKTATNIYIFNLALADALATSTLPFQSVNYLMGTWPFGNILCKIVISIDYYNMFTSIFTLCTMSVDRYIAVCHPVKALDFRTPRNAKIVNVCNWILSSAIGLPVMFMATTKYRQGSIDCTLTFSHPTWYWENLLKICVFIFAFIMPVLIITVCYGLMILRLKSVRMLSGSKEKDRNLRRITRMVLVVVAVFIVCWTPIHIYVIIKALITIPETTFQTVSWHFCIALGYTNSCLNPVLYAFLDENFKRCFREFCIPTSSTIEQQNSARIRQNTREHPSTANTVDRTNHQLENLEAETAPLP

Row | Structure (SMILES) | Ki (mu opioid receptor (MOR) [1]) | Ki [2] | Ki [4] | MOR agonism / efficacy in [35S]-GTPγS binding assay (in words) (mu opioid receptor (MOR) [6]) | further results
1 | O=C(N[C@@]12CCC(=O)[C@@H]3Oc4c(O)ccc5c4[C@@]31CCN(CC1CC1)[C@@H]2C5)c1cccnc1 [Compound 11, 17-cyclopropylmethyl-4,5α-epoxy-3-hydroxy-14β-N-[(3’-pyridyl)carboxamido]morphinan-6-one] | 0.75 ± 0.28 nM | 0.16 ± 0.01 nM | 39.9 ± 0.5 nM |  | Agonist effect in tail flick assay (antinociception): None of the compounds produced any significant agonist effect; EC50 [3]: 3.2 ± 2 nM; Wet dog shakes at 30 mg/kg (morphine dependent mice; 30 mg/kg s.c., compared with 1 mg/kg naloxone and naltrexone): resembled the effect of 1 mg/kg naloxone and naltrexone; Escape jumps, effect of dose (morphine dependent mice; [7]): dose-response increasing effect; Wet dog shakes, effect of dose (morphine dependent mice; [7]): dose-response increasing effect; Precipitated withdrawal symptoms, overall comparison (morphine dependent mice; morphine-pelleted mice, s.c.): behaved similarly to naltrexone; EC50 [5]: 0.56 ± 0.06 nM
2 | O=C1CC[C@@]2(O)[C@H]3Cc4ccc(O)c5c4[C@@]2(CCN3CC2CC2)[C@H]1O5 [NTX, naltrexone, reference compound] |  |  |  |  | Escape jumps (morphine dependent mice; [8]): over twenty times; Wet dog shakes (morphine dependent mice; [8]): above seven times
3 | O=C(CNC(=O)c1ccccn1)N[C@@]12CCC(=O)[C@@H]3Oc4c(O)ccc5c4[C@@]31CCN(CC1CC1)[C@@H]2C5 [Compound 20, 17-cyclopropylmethyl-4,5α-epoxy-3-hydroxy-14β-N-{2’-[(pyridin-2”-yl)carboxamido]acetamido}morphinan-6-one] | 0.3 ± 0.01 nM | 0.14 ± 0.01 nM | 0.37 ± 0.04 nM | low efficacy MOR partial agonists | 
4 | O=C(CCc1ccccn1)N[C@@]12CCC(=O)[C@@H]3Oc4c(O)ccc5c4[C@@]31CCN(CC1CC1)[C@@H]2C5 [Compound 19, 17-cyclopropylmethyl-4,5α-epoxy-3-hydroxy-14β-N-[3’-(pyridin-2”-yl)propanamido]morphinan-6-one] | 0.32 ± 0.04 nM | 0.17 ± 0.02 nM | 9.1 ± 0.5 nM | low efficacy MOR partial agonists | 
5 | O=C(O[C@@]12CCC(=O)[C@@H]3Oc4c(O)ccc5c4[C@@]31CCN(CC1CC1)[C@@H]2C5)c1cnc2ccccc2c1 [Compound 8, 17-cyclopropylmethyl-4,5α-epoxy-3-hydroxy-14β-O-(quinolyl-3’-carboxy)morphinan-6-one] | 2.69 ± 0.72 nM | 148 ± 55.5 nM | 818 ± 507 nM |  | Selectivity to the MOR over the KOR and the DOR (mu opioid receptor (MOR) [1]): above 30 fold
6 | O=C(N[C@@]12CCC(=O)[C@@H]3Oc4c(O)ccc5c4[C@@]31CCN(CC1CC1)[C@@H]2C5)c1ccccc1 [Compound 13, 17-cyclopropylmethyl-4,5α-epoxy-3-hydroxy-14β-N-(benzamido)morphinan-6-one] | 4.34 ± 0.7 nM | 0.12 ± 0.001 nM | 57.3 ± 4.3 nM |  | 
7 | O=C(N[C@@]12CCC(=O)[C@@H]3Oc4c(O)ccc5c4[C@@]31CCN(CC1CC1)[C@@H]2C5)c1ccc2ccccc2c1 [Compound 17] | 6.22 ± 4.01 nM | 0.33 ± 0.02 nM | 10.5 ± 1.4 nM |  | 
8 | O=C(Cc1ccccn1)N[C@@]12CCC(=O)[C@@H]3Oc4c(O)ccc5c4[C@@]31CCN(CC1CC1)[C@@H]2C5 [Compound 18, 17-cyclopropylmethyl-4,5α-epoxy-3-hydroxy-14β-N-[2’-(pyridin-2”-yl)acetamido]morphinan-6-one] | 0.29 ± 0.04 nM | 0.19 ± 0.03 nM | 3.92 ± 0.12 nM | MOR partial agonist with relatively high efficacy | 
